In patent US20240269170A1, “Treatment of Inflammatory Conditions or Diseases” (Queen Mary University of London, priority 2021, published 2024):

Tested on: mononuclear phagocytes
Assay: Phosphoproteomic analysis of GM-CSF differentiated human monocytes incubated with MCTR3 vs vehicle
Type: cell-based
Method: FIG. 5: MCTR3 reprograms the arthritic monocyte-derive macrophage transcriptome. A-B) Arthritis was induced and prolonged in C57BL/6 mice by administering 100 μL K/B×N serum i.p. on day 0, 2 and 9. Mice were treated on day 12 i.v. with 2×10^6 monocytes isolated from arthritic mice and incubated either with vehicle (PBS+0.1% DMSO) or 10 μM RG108, a DNMT inhibitor, for 15 min and then with a vehicle (PBS+0.1% EtOH) or 1 nM MCTR3 for 90 min (37° C.). Disease course was monitored daily by assessing A) clinical scores and B) oedema. Results are mean±SEM and expressed as percent change from day of treatment. n=10 mice per group. Statistical differences were evaluated using Two-way ANOVA. (C-E) K/B×N serum (100 μL, i.p.) was administered to mice on days 0, 2 and 9 to induce and prolong inflammatory arthritis. On day 12, mice were treated i.v. with 2×10^6 monocytes isolated from arthritic mice that were previously incubated with either vehicle (PBS+0.1% EtOH) or 1 nM MCTR3 for 90 min. Cells were isolated from paw joints on day 22, sorted for CD45^+ cells and single cell RNA sequencing was performed. […] Results are from n=4 mice per group. (F-G) Monocytes were isolated from human healthy volunteers, these cells were then incubated with GM-CSF (7 days, 37° C.) then with either Vehicle or MCTR3 (1 nM, 37° C.). Cells were lysed and the phosphoproteome determined using mass spectrometry. (F) GO Biological pathway analysis and (G) KEGG pathway analysis for proteins found to be differentially phosphorylated in cells incubated with MCTR3 when compared to those incubated with vehicle. Results are representative of cells from n=3 healthy volunteers per group
To further explore the mechanisms regulated by MCTR3 to reprogram mononuclear phagocytes we next evaluated the signaling pathways activated by MCTR3 using a phosphoproteomic approach. […] This regulation was also observed when using the Kyoto Encyclopaedia of Genes and Genomes pathway database that highlighted an enrichment of spliceosome linked proteins as well as proteins involved in mRNA surveillance by MCTR3. (FIG. 5G and Table 7). […] These findings indicate that MCTR3 promotes the reprograming of mononuclear phagocytes by both regulating epigenetic programs and protein translation to facilitate the termination of inflammation and joint protection. They also support the hypothesis that MCTR3-reprogrammed monocytes recruited into arthritic joints exert their activities via the upregulation of tissue protective pathways. […]
For evaluation of signalling pathways activated by MCTR3, monocytes were isolated from peripheral blood of healthy volunteers, incubated with GM-CSF (20 ng/ml, in RPMI containing 10% human serum) for 7 days and then incubated with MCTR3 (1 nM, in DPBS^+/+).
Phosphoproteomics experiments were performed using mass spectrometry. In brief, cells were lysed in 8M urea buffer and supplemented with phosphatase inhibitors (10 mM Na3VO4, 100 mM B-glycerol phosphate and 25 mM Na2H2P2O7 (Sigma)). Proteins were digested into peptides using trypsin. Phosphopeptides were enriched from total peptides by TiO2 chromatography. Dried phosphopeptides were dissolved in 0.1% TFA and analysed by nanoflow ultimate 3000 RSL nano instrument was coupled on-line to a Q Exactive plus mass spectrometer (Thermo Fisher Scientific). Gradient elution was from 3% to 35% buffer B in 120 min at a flow rate 300 nL/min with buffer A being used to balance the mobile phase (buffer A was 0.1% formic acid in water and B was 0.1% formic acid in acetonitrile). The spray voltage was 1.95 kV and the capillary temperature was set to 255° C. The Q-Exactive plus was operated in data dependent mode with one survey MS scan followed by 15 MS/MS scans. The full scans were acquired in the mass analyser at 375-1500m/z with the resolution of 70 000, and the MS/MS scans were obtained with a resolution of 17 500. […]

[1] = KEGG Pathway, differentially phosphorylated proteins, 1 nM MCTR3 vs vehicle
[2] = Reactome Gene Sets, differentially phosphorylated proteins, 1 nM MCTR3 vs vehicle

CC/C=C\C/C=C\C[C@H](O)[C@@H](/C=C/C=C/C=C\C/C=C\CCC(=O)O)SC[C@H](N)C(=O)O [MCTR3, 13R-cysteinyl, 14S-hydroxy-4Z, 7Z, 9E, 11E, 13R, 14S, 16Z, 19Z-docosahexaenoic acid]
phosphorylation status of SETD2, Histone deacetylase 1 and Histone deacetylase 2 (1 nM MCTR3): regulated | proteins involved in post-transcriptional regulation and protein translation (differential phosphorylation, GO analysis) (1 nM MCTR3): marked regulation | Endocytosis (ko04144) enrichment LogP [1]: −3.117 | Fc gamma R-mediated phagocytosis (ko04666) enrichment LogP [1]: −2.545 | Glycolysis, core module involving three-carbon compounds (M00002) enrichment LogP [1]: −4.6043 | Guanine ribonucleotide biosynthesis IMP => GDP, GTP (M00050) enrichment LogP [1]: −3.0343 | Herpes simplex infection (ko05168) enrichment LogP [1]: −2.0881 | Neurotrophin signaling pathway (ko04722) enrichment LogP [1]: −2.6025 | Notch signaling pathway (ko04330) enrichment LogP [1]: −4.0393 | Spliceosome (hsa03040) enrichment LogP [1]: −7.662 | Transcriptional misregulation in cancer (ko05202) enrichment LogP [1]: −2.704 | mRNA surveillance pathway (ko03015) enrichment LogP [1]: −3.284 | parathyroid hormone synthesis, secretion and action (hsa04928) enrichment LogP [1]: −2.088 | Apoptotic execution phase (R-HSA-75153) enrichment LogP [2]: −3.842 | COPII-mediated vesicle transport (R-HSA-204005) enrichment LogP [2]: −2.4 | Diseases of signal transduction by growth factor receptors and second messengers (R-HSA-5663202) enrichment LogP [2]: −4.434 | Estrogen-dependent gene expression (R-HSA-9018519) enrichment LogP [2]: −2.633 | Formation of RNA Pol II elongation complex (R-HSA-112382) enrichment LogP [2]: −4.381 | Initiation of Nuclear Envelope (NE) Reformation (R-HSA-2995383) enrichment LogP [2]: −3.748 | Interferon gamma signaling (R-HSA-877300) enrichment LogP [2]: −2.545 | Nervous system development (R-HSA-9675108) enrichment LogP [2]: −3.151 | Neutrophil degranulation (R-HSA-6798695) enrichment LogP [2]: −2.465 | Prolonged ERK activation events (R-HSA-169893) enrichment LogP [2]: −2.935 | RHO GTPase Effectors (R-HSA-195258) enrichment LogP [2]: −3.726 | Regulation of MECP2 expression and activity (R-HSA-9022692) enrichment LogP [2]: −6.229 | SUMO E3 ligases SUMOylate target proteins (R-HSA-3108232) enrichment LogP [2]: −6.009 | Signaling by NTRKs (R-HSA-166520) enrichment LogP [2]: −5.116 | TRAF3-dependent IRF activation pathway (R-HSA-918233) enrichment LogP [2]: −2.935 | Transcriptional Regulation by TP53 (R-HSA-3700989) enrichment LogP [2]: −7.191 | Vesicle-mediated transport (R-HSA-5653656) enrichment LogP [2]: −6.611 | p75 NTR receptor-mediated signalling (R-HSA-193704) enrichment LogP [2]: −6.512
